In publication PMC10046037, “GABRG2 Variants Associated with Febrile Seizures” (Biomolecules, 2023):

Biological target: T1, α1β3γ2 GABAA receptor, γ2F457S variant (Homo sapiens, UniProt P14867+P18507+P28472, F457S)
T1 construct: expressed in transfected cells; host or cells: HEK293T
T1 sequence (P14867 28-456): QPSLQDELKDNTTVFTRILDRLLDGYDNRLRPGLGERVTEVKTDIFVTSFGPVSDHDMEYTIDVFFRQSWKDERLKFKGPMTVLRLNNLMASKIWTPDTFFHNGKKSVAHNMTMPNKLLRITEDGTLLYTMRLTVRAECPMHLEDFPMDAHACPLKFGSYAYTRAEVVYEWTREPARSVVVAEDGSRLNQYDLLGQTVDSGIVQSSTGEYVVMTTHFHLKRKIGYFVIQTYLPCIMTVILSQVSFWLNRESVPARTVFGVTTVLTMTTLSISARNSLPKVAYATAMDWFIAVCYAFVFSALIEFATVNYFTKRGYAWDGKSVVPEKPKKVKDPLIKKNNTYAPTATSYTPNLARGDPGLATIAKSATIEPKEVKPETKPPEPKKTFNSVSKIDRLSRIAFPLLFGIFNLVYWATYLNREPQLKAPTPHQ
T1 sequence (P28472 26-473 isoform P28472-2): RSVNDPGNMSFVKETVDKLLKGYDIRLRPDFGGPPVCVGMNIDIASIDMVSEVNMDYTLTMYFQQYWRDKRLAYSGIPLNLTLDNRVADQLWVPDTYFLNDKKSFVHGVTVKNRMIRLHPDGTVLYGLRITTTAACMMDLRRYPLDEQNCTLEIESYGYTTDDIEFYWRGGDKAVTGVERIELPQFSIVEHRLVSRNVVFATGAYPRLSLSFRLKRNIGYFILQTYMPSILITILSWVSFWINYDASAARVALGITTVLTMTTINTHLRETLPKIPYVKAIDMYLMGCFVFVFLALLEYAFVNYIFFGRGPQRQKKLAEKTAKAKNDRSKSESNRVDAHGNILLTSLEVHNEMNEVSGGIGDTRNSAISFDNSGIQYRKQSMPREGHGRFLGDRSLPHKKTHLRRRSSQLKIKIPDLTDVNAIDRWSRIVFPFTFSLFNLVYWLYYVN
T1 sequence (P18507 40-475 F457S): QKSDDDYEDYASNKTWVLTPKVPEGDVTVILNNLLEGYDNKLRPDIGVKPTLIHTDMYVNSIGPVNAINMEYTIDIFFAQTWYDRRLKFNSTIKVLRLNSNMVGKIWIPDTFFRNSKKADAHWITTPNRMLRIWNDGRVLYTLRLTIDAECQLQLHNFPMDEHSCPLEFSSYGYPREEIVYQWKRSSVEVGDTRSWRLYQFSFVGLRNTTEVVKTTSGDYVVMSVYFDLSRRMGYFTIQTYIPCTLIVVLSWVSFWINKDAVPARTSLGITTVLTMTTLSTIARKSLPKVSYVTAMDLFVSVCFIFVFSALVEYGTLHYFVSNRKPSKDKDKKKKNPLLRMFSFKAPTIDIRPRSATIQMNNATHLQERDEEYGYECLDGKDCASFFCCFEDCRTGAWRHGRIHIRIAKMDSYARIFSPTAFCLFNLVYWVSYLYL
Experiment: Automated patch clamp of GABA-elicited currents (SyncroPatch 384PE), γ2F457S
Format: cell-based
Conditions: mean
Procedure: The coding sequences of human α1 (GABRA1, NM_000806), β3 (GABRB3, NM_021912), and γ2 (GABRG2, NM_198904.2) GABAAR subunits were subcloned into the pcDNA3.1 expression vectors (Invitrogen, Waltham, MA, USA).
HEK293T cells (ATCC, CRL-11268) were cultured at 37 °C in a humidified 5% CO2 incubator and maintained in Dulbecco’s modified Eagle’s medium (Invitrogen) supplemented with 10% fetal bovine serum (Life Technologies, Carlsbad, CA, USA), and 100 IU/mL of penicillin/streptomycin (Life Technologies). For the expression experiments, 4 × 10^5 cells were transfected using polyethylenimine (PEI) reagent (40 kD, Polysciences, Warrington, PA, USA) at a DNA: to transfection reagent ratio of 1:2.5 and harvested 36 h after transfection. To express WT and variant α1β3γ2 receptors, a total of 3 µg of α1, β3, and γ2 (WT or mutant) subunit cDNAs were transfected at a ratio of 1:1:1 into 60 mm culture dishes. For the mock-transfected condition, an empty pcDNA3.1 vector was added for a final cDNA transfection amount of 3 μg. For the electrophysiology experiments, 2.5 × 10^5 cells were plated in 100 mm culture dishes and transfected after 24 h with 3 μg of cDNA of each α1, β3, γ2 (wild-type or mutant) subunit, using X-tremeGENE HP DNA transfection Reagent (Roche Diagnostics, Basel, Switzerland), following the manufacturer’s protocol. Recordings were obtained forty-eight hours after transfection.
Whole-cell patch clamp recordings were conducted according to the manufacturer’s standard procedure for the SyncroPatch 384 [31]. Whole-cell voltage-clamp recordings were performed at room temperature on HEK293T cells 48 h after transfection with GABAAR subunits, using the SyncroPatch 384PE (Nanion Technologies, Munich, Germany). Cells, at a concentration of 400,000 cells/mL, were harvested in suspension in external solution containing 140 mM of NaCl, 2 mM of CaCl2, 4 mM of KCl, 1 mM of MgCl2, 5 mM of glucose, and 10 mM of HEPES (pH 7.4 with NaOH, 298 mOsm). The cells were loaded in a multi-hole (4 holes per well) 384-well Nanion patch clamp (NPC) chip with a thick borosilicate glass bottom and an average resistance pore size of […]. Built-in electrophysiological protocols were used, and the data were digitized using PatchControl 384 (Nanion Technologies) application. Using PatchControl 384, electrophysiological parameters, such as seal resistance, capacitance, and series resistance, were determined for each well after the application of a test pulse, and subsequently monitored over time. […] The currents were normalized to the maximal response of each well, and the concentration–response curves were calculated from single-point additions. The EC50 values for each variant or wild-type receptor were calculated across multiple wells for each experimental condition.

- Deactivation (1 mM GABA for 5 ms, HEK293T, -80 mV): 224.8 ms
- IMAX (maximal GABA-evoked peak current) (1 mM GABA for 5 ms, HEK293T): 0.44 nA
- IMAX variant/IMAX WT (1 mM GABA): 21.96%
- Rise Time (10–90% rise time, 1 mM GABA for 5 ms, HEK293T): 60.51 ms
Structure (SMILES): NCCCC(=O)O [GABA, γ-aminobutyric acid]
